These results are taken from PMC12345137 (mBio, 2025).

For orientation: IC50 means the concentration that inhibits the measured activity by half.

One test concerns S. aureus (SA) agr-IV. Particulars: fluorescence, cited from earlier work.
The subject of another test is S. aureus (SA) agr-II. Particulars: fluorescence, cited from earlier work.
A further test deals with S. aureus agr-II (Staphylococcus aureus, UniProt O33587). The experiment in a line: cell-based. The procedure: (§1) Peptides were evaluated for the ability to interfere with agr-mediated quorum sensing in S. aureus (AH1677, AH430, AH1747, and AH1872 for agr-I–IV, respectively) ([40]) using reporter strains expressing yellow fluorescent protein (YFP) upon agr activation. Interference with agr-mediated quorum sensing in S. epidermidis (AH3408, AH3623, and AH3409 for agr-I–III, respectively) ([45]), and S. lugdunensis (AH4031 for agr-I) ([37]) was evaluated using reporter strains expressing superfolder green fluorescent protein (sGFP) upon agr activation. Overnight cultures of the reporter strains were grown in TSB medium containing chloramphenicol (CAM, 10 μg/mL for S. aureus) or erythromycin (ERM, 10 μg/mL of S. epidermidis and S. lugdunensis) and diluted 1:100 in fresh TSB medium containing the same antibiotic. Assays were performed in sterile black 96-well plates with a clear bottom. […] DMSO stock solutions of peptides (1 mM) were diluted in TSB media and added (15 μL) in technical triplicate to the 96-well plate, followed by diluted bacterial overnight cultures (135 μL). Control wells for 100% agr activity were wells replacing the peptide solution with TSB medium (15 μL). […] Wells containing 150 μL TSB medium were used to measure background fluorescence. The 96-well plates were incubated in a humidified incubator at 37°C shaking at 1,000 rpm for 22–24 h and fluorescence (for GFP: excitation 479 nm, emission 520 nm; for YFP: excitation 500 nm, emission 541 nm; automatic gain), and OD600 values were subsequently measured using a plate reader. Background fluorescence was subtracted from all wells and further normalized to the corresponding OD600 value of the respective wells. The average fluorescence of control wells was used as a relative measure for 100% activation of the agr-circuit, and bar graphs were generated using GraphPad Prism 10.4 software. All assays were performed in at least a biological duplicate.
S. aureus agr-II, sequence (O33587 entry or part of it): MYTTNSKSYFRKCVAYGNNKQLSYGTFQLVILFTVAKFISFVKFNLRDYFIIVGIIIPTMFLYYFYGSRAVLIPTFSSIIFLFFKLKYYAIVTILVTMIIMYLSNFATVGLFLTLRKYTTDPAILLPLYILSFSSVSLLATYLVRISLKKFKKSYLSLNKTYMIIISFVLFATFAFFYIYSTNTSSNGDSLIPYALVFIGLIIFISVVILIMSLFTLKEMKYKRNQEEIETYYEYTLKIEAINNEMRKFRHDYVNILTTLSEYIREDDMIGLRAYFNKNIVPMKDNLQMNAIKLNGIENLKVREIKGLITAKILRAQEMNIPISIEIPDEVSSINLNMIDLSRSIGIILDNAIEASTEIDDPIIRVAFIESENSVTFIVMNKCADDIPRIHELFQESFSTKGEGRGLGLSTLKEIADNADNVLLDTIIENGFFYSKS
(§2) Overnight cultures of the reporter strains were grown in TSB medium containing chloramphenicol (CAM, 10 μg/mL for S. aureus) or erythromycin (ERM, 10 μg/mL of S. epidermidis and S. lugdunensis) and diluted 1:100 in fresh TSB medium containing the same antibiotic. Assays were performed in sterile black 96-well plates with clear bottoms. Peptide solutions (15 μL) in 1:5 serial dilutions from DMSO stock solutions (1 mM) in TSB medium were added to the 96-well plate in technical duplicate followed by diluted bacterial overnight cultures (135 μL). Control wells for 100% agr activity were wells replacing the peptide solution with TSB medium (15 μL). Wells containing 150 μL TSB medium were used to measure background fluorescence. The 96-well plates were incubated in a humidified incubator at 37°C shaking at 1,000 rpm for 22–24 h and fluorescence (for GFP: excitation 479 nm, emission 520 nm; for YFP: excitation 500 nm, emission 541 nm; automatic gain), and OD600 values were subsequently measured using a plate reader. Background fluorescence was subtracted from all wells and further normalized to the corresponding OD600 value of the respective wells. The average fluorescence of control wells was used as a relative measure for 100% activation of the agr-circuit. Relative agr activity was plotted to obtain IC50 values by non-linear regression with variable slope using GraphPad Prism 10.4 software. All assays were performed in biological triplicate.

For a further test, the target named is SA AgrC-II (Staphylococcus aureus, UniProt O33587). The experiment in a line: β-Lactamase assay, reporter strain RN10829 (P2-agrA:P3-blaZ) with pagrC-II. Particulars: for IC50, SA AgrC-II, b-lactamase assay: 100 nM cognate AIP, ± SEM, -b = no inhibition recorded at the highest AIP concentration tested, -a = only partial inhibition observed, this study (curves in Fig. S20). Format: cell-based. The text has this:
(§3) The β-lactamase reporter strain RN10829 (P2-agrA:P3-blaZ) ([62]), with pagrC-I ([63]), pagrC-II, pagrC-III, or pagrC-IV ([11]), substituting the native agr locus with a chromosomal integration of P2-agrA and P3-blaZ and a plasmid from which a wild-type variant of the corresponding AgrC is expressed, was used to assess inhibition and activation of the AgrC receptor via β-lactamase activity in response to varying concentrations of the QS modulating peptides. Overnight cultures of the reporter strains in TSB medium were diluted 1:250 in fresh TSB medium and grown to OD600 = 0.35–0.40 (early exponential phase) at 37°C. Peptide solutions (10 μL) in 1:10 serial dilutions from DMSO stock solutions (1 mM) in TSB medium (final concentrations = 10 μM–10 pM) were added to each well of a clear 96-well plate as well as solutions (10 μL) of cognate AIP (final concentration = 100 nM) in TSB medium followed by 80 μL of bacterial cells. Control wells for 100% β-lactamase activity were wells replacing peptide solution with TSB media (10 μL), and control wells for 0% β-lactamase activity were wells replacing both peptide and cognate AIP solutions with TSB medium (20 μL). The 96-well plates were incubated at 37°C shaking at 200 rpm for 1 h and immediately frozen down at −80°C to minimize growth during nitrocefin treatment. Next, the 96-well plates were thawed, and OD600 values were determined using a plate reader followed by the addition of 50 μL of nitrocefin solution to the wells (final concentration = 33.3 μg/mL). β-Lactamase activity was monitored at OD486 every 20 s for 10 min at 37°C using a plate-reader. Linear nitrocefin conversion rates were plotted to obtain IC50 values by non-linear regression with variable slope using GraphPad Prism 10.4 software. Assays were performed at least as duplicate determinations in biological triplicate.

The target in a further test is S. epidermidis agr-III (Staphylococcus epidermidis, UniProt Q8VSX2). The experiment in a line: cell-based. Format: cell-based. The procedure: as §1, §2
S. epidermidis agr-III, sequence (Q8VSX2 entry or part of it): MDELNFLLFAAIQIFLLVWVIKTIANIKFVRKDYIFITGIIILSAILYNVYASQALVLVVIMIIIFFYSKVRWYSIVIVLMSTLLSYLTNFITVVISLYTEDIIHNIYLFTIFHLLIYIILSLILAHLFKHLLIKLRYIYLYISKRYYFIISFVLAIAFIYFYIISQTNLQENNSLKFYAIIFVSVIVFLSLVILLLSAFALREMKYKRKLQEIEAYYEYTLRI
The next test has as its target S. aureus agr-IV (Staphylococcus aureus, UniProt Q309Z2). The experiment in a line: cell-based. Particulars: fluorescent reporter strain; peptides tested at 1000, 50, 2.5, 0.125 nM or in dose-response. The format is cell-based. The procedure: as §1, §2
A further test deals with S. aureus (SA) agr-III. Particulars: fluorescence, cited from earlier work.
The target in a further test is SA AgrC-IV (Staphylococcus aureus, UniProt Q309Z2). Kind of test: β-Lactamase assay, reporter strain RN10829 (P2-agrA:P3-blaZ) with pagrC-IV. Format: cell-based. Particulars: for IC50, SA AgrC-IV, b-lactamase assay: 100 nM cognate AIP, ± SEM, -b = no inhibition recorded at the highest AIP concentration tested, -a = only partial inhibition observed, this study (curves in Fig. S22).
SA AgrC-IV, sequence (Q309Z2 entry or part of it): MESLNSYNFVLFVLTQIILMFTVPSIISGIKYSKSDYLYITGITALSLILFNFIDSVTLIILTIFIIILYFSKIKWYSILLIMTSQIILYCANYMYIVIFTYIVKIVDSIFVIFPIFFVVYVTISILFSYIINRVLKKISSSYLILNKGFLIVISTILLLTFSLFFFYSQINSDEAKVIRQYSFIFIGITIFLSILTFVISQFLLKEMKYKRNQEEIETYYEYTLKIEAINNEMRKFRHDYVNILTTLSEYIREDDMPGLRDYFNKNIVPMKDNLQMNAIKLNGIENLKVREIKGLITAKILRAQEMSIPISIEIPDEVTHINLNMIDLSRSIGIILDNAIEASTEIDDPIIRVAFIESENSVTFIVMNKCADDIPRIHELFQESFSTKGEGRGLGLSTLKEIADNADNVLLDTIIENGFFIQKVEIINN
Source text: as §3

A further test deals with SA AgrC-III (Staphylococcus aureus, UniProt O33590). Kind of test: β-Lactamase assay, reporter strain RN10829 (P2-agrA:P3-blaZ) with pagrC-III. The format is cell-based. Particulars: for IC50, SA AgrC-III, b-lactamase assay: 100 nM cognate AIP, ± SEM, -b = no inhibition recorded at the highest AIP concentration tested, -a = only partial inhibition observed, this study (curves in Fig. S21).
SA AgrC-III, sequence (O33590 entry or part of it): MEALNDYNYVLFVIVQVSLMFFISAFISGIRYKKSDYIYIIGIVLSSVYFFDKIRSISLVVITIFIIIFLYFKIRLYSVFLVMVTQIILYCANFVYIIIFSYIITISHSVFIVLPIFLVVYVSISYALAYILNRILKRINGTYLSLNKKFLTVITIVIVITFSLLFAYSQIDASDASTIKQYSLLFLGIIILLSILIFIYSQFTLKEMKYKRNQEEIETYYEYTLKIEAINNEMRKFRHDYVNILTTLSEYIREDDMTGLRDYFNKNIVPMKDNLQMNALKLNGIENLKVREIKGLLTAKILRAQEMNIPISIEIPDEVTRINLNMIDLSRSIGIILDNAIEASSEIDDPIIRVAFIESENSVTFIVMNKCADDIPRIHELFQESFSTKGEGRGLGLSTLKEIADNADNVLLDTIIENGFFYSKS
Source text: as §3

A further test deals with SA AgrC-I (Staphylococcus aureus, UniProt O07911). The experiment in a line: β-Lactamase assay, reporter strain RN10829 (P2-agrA:P3-blaZ) with pagrC-I. The format is cell-based.
SA AgrC-I, sequence (O07911 entry or part of it): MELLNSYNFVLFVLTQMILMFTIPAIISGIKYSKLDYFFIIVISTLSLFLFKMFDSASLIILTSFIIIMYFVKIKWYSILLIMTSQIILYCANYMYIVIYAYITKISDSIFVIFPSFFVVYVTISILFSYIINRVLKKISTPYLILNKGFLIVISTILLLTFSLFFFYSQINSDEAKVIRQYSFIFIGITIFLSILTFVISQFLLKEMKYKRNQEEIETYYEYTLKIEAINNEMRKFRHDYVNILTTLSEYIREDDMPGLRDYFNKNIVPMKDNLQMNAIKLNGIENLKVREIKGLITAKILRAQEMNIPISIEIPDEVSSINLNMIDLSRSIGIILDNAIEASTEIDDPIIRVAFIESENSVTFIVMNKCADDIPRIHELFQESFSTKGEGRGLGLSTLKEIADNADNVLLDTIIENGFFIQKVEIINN
Source text: as §3, with “Control wells for 100% β-lactamase activity were wells replacing peptide solution with TSB media (10 μL), and control wells for 0% β-lactamase activity were wells replacing both peptide and cognate AIP solutions with TSB medium (20 μL).” left out

In a further test the test system is S. aureus (SA) agr-I. Particulars: fluorescence, cited from earlier work.
For test [1], the system named is S. epidermidis (SE) agr-II. Particulars: fluorescence, cited from earlier work.
Test [2] concerns S. epidermidis (SE) agr-I. Particulars: fluorescence, cited from earlier work.
The subject of test [3] is S. epidermidis (SE) agr-III. Particulars: fluorescence, cited from earlier work.

Like-named read-outs stand apart in the source and are kept apart here. Positions of bridges follow the written chain, without caps; N, C: chain ends. Residues, ends and D or L forms follow the SMILES beside them.

SA AgrC-II, sequence (O33587 entry or part of it): as the sequence (O33587 entry or part of it) above
S. aureus agr-IV, sequence (Q309Z2 entry or part of it): as the sequence (Q309Z2 entry or part of it) above

For `CC[C@H](C)[C@H](NC(=O)[C@@H](N)CC(=O)O)C(=O)N[C@H]1CSC(=O)[C@H](Cc2ccccc2)NC(=O)[C@H](Cc2ccc(O)cc2)NC(=O)[C@H](C)NC(=O)[C@H](CC(N)=O)NC1=O` [compound 8, S. lugdunensis AIP-I] (H-DICNAYF; thioester 3-C; N-terminus assumed), the IC50 in the test on S. aureus (SA) agr-IV (ref (10)) was greater than 1000 nM; in the test with S. aureus (SA) agr-II (ref (10)), 419 nM; at S. aureus agr-II it was 234 nM; against S. epidermidis agr-III it was 66.8 ± 2.9 nM; with S. aureus (SA) agr-III (ref (10)) it was 36.6 nM; on SA AgrC-III it was greater than 1000 nM. Also, the “IC50, SA AgrC-II, b-lactamase assay” value against SA AgrC-II is “-b”. For the same compound, the “QS interaction in words (inhibition / activation), S. aureus agr-IV” value at S. aureus agr-IV was “no effect at 1000 nM”. Besides, the “IC50, SA AgrC-IV, b-lactamase assay” value on SA AgrC-IV is “-b”.

In turn, `CC[C@H](C)[C@H](NC(=O)[C@@H](N)[C@@H](C)O)C(=O)N[C@@H](CO)C(=O)N[C@@H](CO)C(=O)N[C@H](C(=O)N[C@@H](CCCCN)C(=O)N1CCC[C@H]1C(=O)N[C@H]1CSC(=O)[C@H](C(C)C)NC(=O)[C@H](Cc2ccccc2)NC(=O)CNC(=O)[C@H]([C@@H](C)O)NC1=O)C(C)C` [compound 18, S. cohnii AIP-I] (H-TISSVKPCTGFV; thioester 8-C) registered an IC50 at SA AgrC-I greater than 10000 nM. For the same compound, the “IC50, SA AgrC-II, b-lactamase assay” value against SA AgrC-II was “-b”. At SA AgrC-IV, the “IC50, SA AgrC-IV, b-lactamase assay” value is “-b”. The “IC50, SA AgrC-III, b-lactamase assay” value against SA AgrC-III was “-b”.

In the case of `C[C@@H](O)[C@H](NC(=O)[C@H](CO)NC(=O)[C@@H](N)Cc1ccc(O)cc1)C(=O)N[C@H]1CSC(=O)[C@H](Cc2ccccc2)NC(=O)[C@H](Cc2ccc(O)cc2)NC(=O)[C@H](Cc2ccc(O)cc2)NC(=O)[C@H](CO)NC1=O` [compound 20, S. caprae AIP-I] (H-YSTCSYYF; thioester 4-C), the IC50 was 0.6 ± 0.02 nM in the test on S. aureus (SA) agr-I (ref (15)); 8.98 ± 0.32 nM with S. aureus (SA) agr-IV (ref (15)); 5.7 ± 0.8 nM on SA AgrC-I; 0.26 ± 0.08 nM in the test with S. aureus (SA) agr-II (ref (15)); 252 ± 44 nM at SA AgrC-II; 0.2 nM in the test on S. aureus (SA) agr-III (ref (15)). Further, the IC50 at SA AgrC-IV was 199 ± 19 nM. Also, on SA AgrC-III, the “IC50, SA AgrC-III, b-lactamase assay” value was “-a”.

For the compound `C[C@H](N)C(=O)N[C@@H](CC(N)=O)C(=O)N1CCC[C@H]1C(=O)N[C@H]1CSC(=O)[C@H](Cc2ccccc2)NC(=O)[C@H](Cc2ccc(O)cc2)NC(=O)CNC(=O)[C@H](C)NC1=O` [compound 21, S. pasteuri AIP-I] (H-ANPCAGYF; thioester 4-C), the half-maximal inhibitory concentration (IC50) on SA AgrC-I was 155 ± 34 nM; against SA AgrC-IV, greater than 1000 nM; against SA AgrC-III, 191 ± 18 nM. At SA AgrC-II, the “IC50, SA AgrC-II, b-lactamase assay” value is reported as “-b”.

Take `CC(C)C[C@H](NC(=O)[C@H](C)NC(=O)CNC(=O)[C@H](C)NC(=O)[C@@H](NC(=O)[C@H](C)N)[C@@H](C)O)C(=O)N1CCC[C@H]1C(=O)N[C@H]1CSC(=O)[C@H](Cc2ccccc2)NC(=O)[C@H](Cc2ccccc2)NC(=O)CNC(=O)CNC1=O` [compound 23, S. succinus AIP-I] (H-ATAGALPCGGFF; thioester 8-C): the IC50 at SA AgrC-I was 117 ± 26 nM; at SA AgrC-II it was 854 ± 65 nM; against SA AgrC-IV, greater than 1000 nM; on SA AgrC-III it was greater than 1000 nM.

S. epidermidis AIP-II [compound 6]: in the test on S. aureus (SA) agr-I (at 100 nM, ref (11)), the “inhibition at 100 nM, SA agr-I” value is “no inhibition”. The “inhibition at 100 nM, SA agr-IV” value in the test with S. aureus (SA) agr-IV (at 100 nM, ref (11)) is recorded as “no inhibition”. The “inhibition at 100 nM, SA agr-II” value with S. aureus (SA) agr-II (at 100 nM, ref (11)) was “no inhibition”. Moreover, in [1] (at 10 µM, ref (11)), the “effect at 10 µM, SE agr-II” value is reported as “activation”. Also, the “effect from supernatant (% inhibition, activation or no effect), SE agr-II” value in test [1] (from supernatant, ref (18)) was “activation”. Moreover, the “effect from supernatant (% inhibition, activation or no effect), SE agr-I” value in [2] (from supernatant, ref (18)) is recorded as ~ 90%. In addition, the IC50 in test [2] (ref (11)) was 9.64 nM. The “IC50, SA AgrC-II, b-lactamase assay” value against SA AgrC-II was “-b”. The “inhibition at 100 nM, SA agr-III” value in the test on S. aureus (SA) agr-III (at 100 nM, ref (11)) is listed as “no inhibition”. Also, the “IC50, SA AgrC-IV, b-lactamase assay” value on SA AgrC-IV is listed as “-b”. Further, the “effect at 10 µM, SE agr-III” value in test [3] (at 10 µM, ref (11)) is listed as “no effect”. Also, the “effect from supernatant (% inhibition, activation or no effect), SE agr-III” value in test [3] (from supernatant, ref (18)) is given as “no effect”. Moreover, the “IC50, SA AgrC-III, b-lactamase assay” value against SA AgrC-III is reported as “-b”.
